In US20070207123A1, “Amelioration of effects of cigarette smoke” (priority 2002, published 2007):
Marks after values point to notes of the source that are not given here.

Legend:
[1] = system: pulmonary alveolar macrophages (PAM); assay: TNF-alpha secretion by pulmonary alveolar macrophages (ELISA); assay type: cell-based, rat (Fischer 344); details: overnight incubation, baseline 8.3 pg/ml per 1 × 10^6 cells, N 5
Procedure: Rat pulmonary alveolar macrophages (PAM) were isolated from pathogen-free male Fischer 344 rats (Harlan, Indianapolis, Ind.). The rats were anesthetized intramuscularly with ketamine HCL (80 mg/kg; Parke-Davis, Morris Plains, N.J.), xylazine (10 mg/kg; Mobay Corp., Shawnee, Kans.) and acepromazine maleate (3 mg/kg; Fermenta Animal Health Co., Kansas City, Mo.). A tracheostomy was performed, with the insertion of a Teflon #18 gauge catheter (Critikon, Tampa Bay, Fla.) as an endotracheal tube. The rats were killed by exsanguination of the abdominal aorta. The lungs were removed and lavaged with 3 ml aliquots of normal sterile saline warmed to 37 C for a total of 6 washes. The lavaged total cell numbers and PAM differentials were determined from a 0.2 ml sample by hemocytometer counting and cytocentrifuge preparation stained with Diff-Quik (Dade Diagnostics, Aguada, Puerto Rico), respectively. The remaining lavaged fluid was pooled and centrifuged at 400×g for 10 minutes to obtain a cell pellet. […] Cells were then counted using a standard hemocytometer and placed in 12 well plates at a density of 10^4 cells/ml. […]
TNF-alpha secretion by pulmonary alveolar macrophages (PAM) was measured by ELISA (R&D Systems, Minneapolis, Minn.) according to the manufacturer's instructions (25).

[2] = system: mononuclear cells of SSCS-exposed mice; assay: Micronuclei formation in bone marrow and peripheral blood cells after SSCS exposure; assay type: in vivo, mouse (C57B1/6)
Procedure: Determination of micronuclei formation was made as described by Fenech (3). Briefly, animals were exposed to cigarette smoke ±SP treatment. Viable mononuclear cells were isolated from peripheral blood and bone marrow, stimulated with the mitogen PHA for 44 h, and treated with cytochalasin B for 28 h. Cytocentrifuge preparations were made, cells fixed and then analyzed at 1000× for micronuclei formation. At least 1000 cells were analyzed for each preparation.
Exposure to cigarette smoke results in genetic changes that can cause malignant cellular transformation (21, 22). Animals were exposed to SSCS as described above and sacrificed after 7 days. Viable mononuclear cells were isolated from peripheral blood and bone marrow, stimulated with the mitogen PHA for 44 h, and treated with cytochalasin B for 28 h. Cytocentrifuge preparations were made, cells fixed and then analyzed at 1000× for micronuclei formation. At least 1000 cells were analyzed from each preparation. […] Micronuclei formation in combination with damage of lung epithelia can result on pathological conditions such as emphysema and cancer (21).

[3] = system: airway epithelium and basement membranes of SSCS-exposed mice; assay: Electron microscopy of lung airway after SSCS exposure; assay type: in vivo, mouse (C57B1/6)
Procedure: Mice were exposed to side-stream cigarette smoke as previously described (23). […] The cigarette was lit, placed upright in a ring clamp and the smoke was directed into a funnel for distribution through the chamber (at a concentration designed to simulate human exposure in a smokey bar).
The Substance P (SP) agonist, [Sar^9, Met (O2)^11-substance P] was obtained from Sigma Chemicals (St. Louis, Mo.) and used after reconstitution in sterile saline.
(§1) Mice were treated with the SP analog [Sar^9, Met (O2)^11-substance P] for 15 minutes at the indicated doses following the cigarette smoke exposures as previously described (7, 10). Other than the genetically engineered SP experiments, all SP treatments were by the aerosol route using the previously described exposure chambers.
The lungs were prepared for morphometric study by injection of half-strength Kamovsky's Fluid into a major artery at a constant pressure of 20 cm H2O for 1 h at room temperature. The fixed tissue was then tied off at the artery with #4 suture. The Pathology Core Laboratories of the Southwestern Environmental Health Science Center evaluated the fixed tissue for pathological changes. The fixed tissues were sliced, dehydrated and post-fixed in osmium tetroxide, dehydrated and embedded in Epon-Araldite for high-resolution electron microscopy. Thin sections were cut from the embedded tissue with a diamond knife, mounted on 200 um copper mesh grids, and doubly stained with lead citrate and uranyl acetate. The tissue was viewed and photographed using a Phillips CM12 electron microscope (maximum magnification of 19,000×) (21).
Animals were exposed to SSCS for 45 min/day for 7 days from 1R4 standard research cigarettes (cigarette is lit and then placed upright in a ring clamp and the smoke is directed into a funnel for distribution through our exposure chamber) at a concentration designed to simulate a “smokey bar” scenario for human exposure to sidestream cigarette smoke. The sidestream cigarette smoke is considered highly toxic, even compared to the mainstream cigarette smoke that a human smoker inhales, due to the low combustion temperature of the smoldering cigarette. Subsequent to the exposures, some mice were treated with 1 uM-aerosolized SP for 15 minutes. At the end of one week the animals were sacrificed and lungs removed for electron microscopic analysis. […] The structure of the airway is characterized by airway epithelial cells anchored to a basement membrane. Another basement membrane serves as the anchor for the airway endothelial cells. The SSCS electron micrograph is characterized by swelling in both basement membrane areas of the airway structure and loss of cilia on the surface of the airway epithelium. […]

B16 tumor cells = assay: Experimental lung metastasis model, aerosolized SP; assay type: in vivo, mouse (B6); details: for #Tumors/2 Lungs: mean +/− SD; for % Change in #Tumors/2 Lungs: vs B16 alone
Procedure: as §1
B16 tumor cells (H-2^b) were obtained from the American Type Cell Collection (ATCC) and grown in DMEM media (Sigma, St. Louis, Mo.) supplemented with 10% fetal bovine serum (Hyclone, Colo.), antibiotics, nonessential amino acids and glutamine as. Cells in log growth were used for all experiments. An experimental lung metastasis model was utilized in which B16 tumor cells (0.5×10^6 cells in 100 ul saline) were injected intravenously into syngeneic B6 mice. At 7-10 days post-injection the animals were sacrificed and the visually prominent (black) tumors on the surface of both lungs were enumerated.
The Student's t-test was utilized to analyze the data presented. A p value of 0.05 (or lower) was used as a minimally significant difference.

[4] = system: mice exposed to side-stream cigarette smoke (SSCS); assay: Dynamic lung compliance after side-stream cigarette smoke (SSCS) exposure; assay type: in vivo, mouse (C57B1/6)
Procedure: C57B1/6 (B6, Jackson Labs) mice were utilized. Mice were used at an age of 8-12 weeks, 25-35 grams in weight. Female animals only were utilized. All animals were housed in the animal facility of the Dept. of Animal Resources at The University of Arizona Health Sciences Center. Animals were used in AAALAC-approved protocols.
Aerosolized exposures were performed using a DeVilbiss Ultra-Neb nebulizer (Model 099HD, Somerset, Pa.). Animals were exposed in a nose-only presentation while held in individual subject loading tubes similarly to that previously described (12). The tubes were nose cone-fitted to receiving adapters that originated from the common exposure chamber (volume 0.0027 m3, IN-TOX, Albuquerque, N. Mex.). […] Exposure concentration was determined by a seven-stage cascade impactor (IN-TOX) from changes in plate weights and measured immediately after each exposure. […]
Mice were anesthetized with ketamine hydrochloride (80 mg/kg), xylazine (10 mg/kg) and acepromazine maleate (3 mg/kg). […] Airflow was measured with a pneumotachograph (Fleisch #0000, Instrumentation Associates, New York, N.Y.) that was coupled to a differential pressure transducer (Validyne, Northridge, Calif.). […] These lung function parameters were measured with a modified PEDS-LAB (Medical Associated Services, Hatfield, Pa.) pulmonary function system. […]

[5] = SSCS + SP, 7 days, mean +/− SD, N 6
[6] = SSCS 45 min/day then 15 min aerosol dose, FIG. 2

For [Sar^9, Met (O2)^11-substance P] [SP], the “Fold-Increase TNFa” value ([1]; 8 nM SP) was 3.2X, the “Fold-Increase TNFa” value ([1]; 1 uM SP) was 5.4X and the “levels of micronuclei formation versus control animals” value ([2]; SP immediately after SSCS exposure, blood and bone marrow cells) was “comparable to control animals”. For the same substance, the “Percent Micronuclei, Blood” value [2, 5] was 0.01 +/− 0.01* Percent, the “Percent Micronuclei, Bone Marrow” value [2, 5] was 0 +/− 0* Percent and the “deterioration of the lung epithelium / basement membrane (electron microscopy)” value ([3]; SSCS 45 min/day 7 days, 1 uM aerosolized SP 15 min) was “attenuated such deterioration of the lung epithelium”. The “airway basement membranes (electron micrograph)” value [3, 6] was “normal appearance of airway basement membranes”, the “airway cilia (electron micrograph)” value [3, 6] was “normal cilia” and the “cell membrane between airway cells (electron micrograph)” value ([3]; SSCS 45 min/day then 15 min aerosol dose, FIG. 3) was “identifiable cell membrane between airway cells”. The “inhibition of lung tumor formation” value (B16 tumor cells; Experiments 1 to 3, aerosolized SP at the time of or after tumor induction) was 58-97%, the “#Tumors/2 Lungs” value (B16 tumor cells; Expt. 1: aerosolized SP at the time of tumor induction, N 4) was 39 +/− 4* and the “% Change in #Tumors/2 Lungs” value (B16 tumor cells; Expt. 1: aerosolized SP at the time of tumor induction) was −63%. The “#Tumors/2 Lungs” value (B16 tumor cells; Expt. 2: aerosolized SP at day 7 following tumor induction, N 4) was 1 +/− 0.3*, the “% Change in #Tumors/2 Lungs” value (B16 tumor cells; Expt. 2: aerosolized SP at day 7 following tumor induction) was −97% and the “#Tumors/2 Lungs” value (B16 tumor cells; Expt. 3: aerosolized SP at day 7 following tumor induction, N 8) was 102 +/− 32*. For the same substance, the “% Change in #Tumors/2 Lungs” value (B16 tumor cells; Expt. 3: aerosolized SP at day 7 following tumor induction) was −58%, the “alterations in lung compliance due to SSCS” value ([4]; SP immediately after the smoke exposures) was “prevented/reversed” and the “Dynamic Lung Compliance” value ([4]; SSCS 45 min/day for 1 week, then 1 uM aerosolized SP for 15 min, mean +/− SEM, N 15) was 2.2 (0.02) ml · cm H2O^−1 · Kg^−1.
